These results are taken from patent EP1200093B1, “USE OF 2-AMINO-4-(4-FLUORONAPHTH-1-YL)-6-ISOPROPYLPYRIMIDINE IN THE TREATMENT OF GI DISORDERS” (priority 1999, dated 2001).

Usually EC50 stands for the concentration giving half of the maximal effect. Higher therefore signals lower potency in that assay.

Where “and” joins values, the source holds several entries; their conditions need not be identical. Equal values may be shown once.

Test [1] deals with T1, 5-HT2B (Homo sapiens, UniProt P41595). To be noted: human receptor, comparison data; cited from earlier work.
Test [2] concerns the target T2, 5-HT4 (Homo sapiens, UniProt Q13639). To be noted: human receptor, comparison data; cited from earlier work.
Test [3] concerns the target T3, 5-HT receptor in human colon longitudinal muscle (Homo sapiens, UniProt P41595).
T3 construct: Longitudinal muscle strips (2mm wide by 20mm long) were then cut from the tissue between the taenia coli; from tissue; host or cells: human colon longitudinal muscle strips, electrically stimulated
In words: cell-based. The class given is cell-based.

The target of test [4] is T1, 5-HT2B. To be noted: * responses to 5-HT in human isolated tissues; cited from earlier work.
Test [5] addresses T2, 5-HT4. The conditions noted are these: * responses to 5-HT in human isolated tissues; cited from earlier work.
The next test has as its target T4, 5-HT2C (Homo sapiens, UniProt P28335).
T4 sequence (P28335 33-458): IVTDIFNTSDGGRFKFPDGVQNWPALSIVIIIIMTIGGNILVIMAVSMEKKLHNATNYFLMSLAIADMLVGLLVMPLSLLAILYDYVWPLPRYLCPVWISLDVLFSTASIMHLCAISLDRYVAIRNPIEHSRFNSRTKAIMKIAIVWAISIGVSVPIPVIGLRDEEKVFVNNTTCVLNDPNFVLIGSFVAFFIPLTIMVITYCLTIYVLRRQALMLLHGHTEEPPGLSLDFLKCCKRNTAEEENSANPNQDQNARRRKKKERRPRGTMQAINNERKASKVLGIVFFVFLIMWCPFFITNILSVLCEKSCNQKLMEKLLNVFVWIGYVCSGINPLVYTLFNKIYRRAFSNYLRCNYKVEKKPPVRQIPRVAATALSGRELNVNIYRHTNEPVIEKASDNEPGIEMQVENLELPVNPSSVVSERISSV
To be noted: * responses to 5-HT in human isolated tissues; cited from earlier work.

Test [6] has as its system 5-HT receptor in human colon longitudinal muscle. In words: cell-based. The class given is cell-based.

T2 sequence (Q13639 whole entry): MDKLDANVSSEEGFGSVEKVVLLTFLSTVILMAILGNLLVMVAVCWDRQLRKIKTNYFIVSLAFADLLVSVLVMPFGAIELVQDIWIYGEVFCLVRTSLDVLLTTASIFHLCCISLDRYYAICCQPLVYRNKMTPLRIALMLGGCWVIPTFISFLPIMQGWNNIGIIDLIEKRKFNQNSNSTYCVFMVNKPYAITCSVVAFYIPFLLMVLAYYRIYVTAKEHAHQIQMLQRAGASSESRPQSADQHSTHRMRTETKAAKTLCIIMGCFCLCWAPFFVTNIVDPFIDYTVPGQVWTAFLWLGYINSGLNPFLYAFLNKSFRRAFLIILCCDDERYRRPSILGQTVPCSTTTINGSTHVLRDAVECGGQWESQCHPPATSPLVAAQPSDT
T3 sequence (P41595 whole entry): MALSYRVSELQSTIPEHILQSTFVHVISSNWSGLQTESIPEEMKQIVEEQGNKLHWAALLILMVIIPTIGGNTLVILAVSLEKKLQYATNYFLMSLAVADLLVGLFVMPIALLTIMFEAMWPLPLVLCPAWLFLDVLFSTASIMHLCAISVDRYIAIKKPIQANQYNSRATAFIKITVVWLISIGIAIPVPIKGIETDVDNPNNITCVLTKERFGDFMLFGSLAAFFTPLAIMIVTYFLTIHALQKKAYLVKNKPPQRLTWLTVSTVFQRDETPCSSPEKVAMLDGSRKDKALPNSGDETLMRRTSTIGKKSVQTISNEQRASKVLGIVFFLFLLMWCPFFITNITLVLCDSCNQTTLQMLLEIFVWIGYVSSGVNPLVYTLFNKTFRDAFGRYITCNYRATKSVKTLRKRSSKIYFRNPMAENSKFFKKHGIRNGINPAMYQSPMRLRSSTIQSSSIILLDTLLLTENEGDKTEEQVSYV
T1 sequence (P41595 whole entry): as above

As to `COc1ccc2[nH]cc(CCN)c2c1` [5-MeOT], on 5-HT2B [1], the “mean pEC50, 5-HT2B” value was 7.6. Also, the “mean pEC50, 5-HT4” value at 5-HT4 [2] is on record as 6.2. In addition, in test [3], the EC50 is 158 nM.
For the compound `Cn1ccc2cc3c(cc21)CCN3C(=O)Nc1cccnc1` [SB 206553], the “Affinity (pKB) at the 5-HT receptor in human colon longitudinal muscle” value in test [3] (antagonism of 5-HT in electrically-stimulated strips, at least 3 donors (RS127445: n>4 donors)) came to 8.5±0.1. For the same compound, the “mean pKB or pA2, 5-HT2B” value at 5-HT2B [4] is 9.0*.
As for `CSc1ccc2c(c1)C(N1CCN(C)CC1)Cc1ccccc1S2` (stereo not shown) [Methiothepin], the “mean pKB or pA2, 5-HT4” value on 5-HT4 [5] is <6.0*.
Turning to `CC[C@@H](CO)NC(=O)[C@@H]1C=C2c3cccc4c3c(cn4C)C[C@H]2N(C)C1` [Methysergide], the “mean pKB or pA2, 5-HT4” value at 5-HT4 [5] is on record as <5.0*. Besides, the “mean pKB or pA2, 5-HT2C” value at 5-HT2C is listed as 8.9*.
In the case of `Cc1[nH]c2ccc(O)cc2c1CCN` [2-Me-5-HT], the “mean pEC50, 5-HT2B” value on 5-HT2B [1] is given as 6.7. On 5-HT4 [2], the “mean pEC50, 5-HT4” value is given as 6.0. The midpoint of the response in test [3], the EC50, lay at 100 nM.
`Cc1cc2c(cc1Cl)N(C(=O)Nc1ccc(Oc3cccnc3C)nc1)CC2` [SB 242084] gave a Kb in test [3] of 501 nM.
Consider `O=C(c1ccc(F)cc1)C1CCN(CCn2c(=O)[nH]c3ccccc3c2=O)CC1` [Ketanserin], for which the “mean pKB or pA2, 5-HT4” value at 5-HT4 [5] was 4.7*.
With `CC(C)c1cc(-c2ccc(F)c3ccccc23)nc(N)n1` [RS127445, 2-amino-4-(4-fluoronaphth-1-yl)-6-isopropylpyrimidine], the Kb in test [3] was 0.316 nM and 0.355 nM. Also, in test [3] (antagonism of 5-HT, RS127445 0.3nM to 100nM), the “Schild analysis, slope of plot” value was 0.93±0.17.
In the case of `CC(N)Cc1c[nH]c2ccc(O)cc12` (stereo not drawn) [Alpha-Me-5-HT], the “mean pEC50, 5-HT2B” value on 5-HT2B [1] was 8.4. Further, the “mean pEC50, 5-HT4” value at 5-HT4 [2] is recorded as 6.2. The compound also showed an EC50 in test [3] of 3.16 nM.
`CN1[C@@H]2CC[C@H]1C[C@@H](OC(=O)C(CO)c1ccccc1)C2` (stereo partly shown) [atropine]: the “effect on electrically-induced contractile response” value in test [6] is reported as “inhibited”.
